Key:
[1] = Cytotoxicity against human K562-TAX cells incubated for 72 hrs by MTS assay; format: functional, cell-based
BJ = assay: Cytotoxicity against human BJ cells incubated for 72 hrs by MTS assay; format: cell-based
HCT-116 [2] = assay: Cytotoxicity against human HCT116 cells incubated for 72 hrs by MTS assay; format: functional, cell-based; conditions: HCT-116, 72 h
CCRF-CEM = assay: Cytotoxicity against human CCRF-CEM cells incubated for 72 hrs by MTS assay; format: functional, cell-based
K562 = assay: Cytotoxicity against human K562 cells incubated for 72 hrs by MTS assay; format: functional, cell-based; conditions: K562, 72 h
HCT-116 [3] = assay: Cytotoxicity against p53 knockout human HCT116 cells incubated for 72 hrs by MTS assay; format: functional, cell-based; conditions: HCT-116, 72 h
A549 = assay: Cytotoxicity against human A549 cells incubated for 72 hrs by MTS assay; format: functional, cell-based; conditions: A549, 72 h
[4] = Cytotoxicity against human CEM-DNR-bulk cells incubated for 72 hrs by MTS assay; format: functional, cell-based
MRC5 = assay: Cytotoxicity against human MRC5 cells incubated for 72 hrs by MTS assay; format: cell-based; conditions: MRC5, 72 h
U2OS = assay: Cytotoxicity against human U2OS cells incubated for 72 hrs by MTS assay; format: functional, cell-based

SMILES	IC50 [1] [µM]	IC50 (BJ) [µM]	IC50 (HCT-116 [2]) [µM]	IC50 (CCRF-CEM) [µM]	IC50 (K562) [µM]	IC50 (HCT-116 [3]) [µM]	IC50 (A549) [µM]	IC50 [4] [µM]	IC50 (MRC5) [µM]	IC50 (U2OS) [µM]
C=C(C)[C@@H]1CC[C@]2(C(=O)O)CC[C@]3(C)[C@H](CC[C@@H]4[C@@]5(C)Cc6sc(NCc7ccccc7)nc6C(C)(C)[C@@H]5CC[C@]43C)[C@@H]12	> 50	> 50	> 50	3.7	> 50	> 50	> 50	> 50	> 50	47.5
C[C@H]1[C@H](C)CC[C@]2(C(=O)O)CC[C@]3(C)C(=CC[C@@H]4[C@@]5(C)CCC(=O)C(C)(C)[C@@H]5CC[C@]43C)[C@H]12 [URSONIC ACID]	35.5	> 50	49.7	10.4	> 50	> 50	> 50	34	> 50	> 50
C=C(C)[C@@H]1CC[C@]2(C(=O)O)CC[C@]3(C)[C@H](CC[C@@H]4[C@@]5(C)CC(Br)C(=O)C(C)(C)[C@@H]5CC[C@]43C)[C@@H]12 (stereo not given in full)	23.5	33.5	31.1	3	35.5	32.7	24	17.9	20.4	23.4
CC(C)[C@@H]1CC[C@]2(C(=O)O)CC[C@]3(C)[C@H](CC[C@@H]4[C@@]5(C)CCC(=O)C(C)(C)[C@@H]5CC[C@]43C)[C@@H]12 [DIHYDROBETULONIC ACID]	11.1	> 50	33.5	6.2	11.6	36.4	22.2	48.3	> 50	27.5
C[C@H]1[C@H](C)CC[C@]2(C(=O)O)CC[C@]3(C)C(=CC[C@@H]4[C@@]5(C)Cc6sc(NC7CCCCC7)nc6C(C)(C)[C@@H]5CC[C@]43C)[C@H]12	> 50	> 50	> 50	19.4	> 50	> 50	> 50	> 50	> 50	> 50
C=C(C)[C@@H]1CC[C@]2(C(=O)O)CC[C@]3(C)[C@H](CC[C@@H]4[C@@]5(C)Cc6sc(N7CCOCC7)nc6C(C)(C)[C@@H]5CC[C@]43C)[C@@H]12	> 50	> 50	> 50	7.2	11.2	> 50	> 50	> 50	> 50	> 50
C[C@H]1[C@H](C)CC[C@]2(C(=O)O)CC[C@]3(C)C(=CC[C@@H]4[C@@]5(C)Cc6sc(N)nc6C(C)(C)[C@@H]5CC[C@]43C)[C@H]12	33.1	> 50	43	19	> 50	> 50	> 50	29.5	> 50	49.6
C=C(C)[C@@H]1CC[C@]2(C(=O)O)CC[C@]3(C)[C@H](CC[C@@H]4[C@@]5(C)Cc6sc(N(CC)CC)nc6C(C)(C)[C@@H]5CC[C@]43C)[C@@H]12	46.8	> 50	> 50	8.5	29.5	31.6	> 50	> 50	23.3	> 50
CC1(C)CC[C@]2(C(=O)O)CC[C@]3(C)C(=CC[C@@H]4[C@@]5(C)CCC(=O)C(C)(C)[C@@H]5CC[C@]43C)[C@@H]2C1 [OLEANONIC ACID]	21.5	> 50	45.1	15.1	> 50	> 50	49.5	17.4	> 50	48.5
C[C@H]1[C@H](C)CC[C@]2(C(=O)O)CC[C@]3(C)C(=CC[C@@H]4[C@@]5(C)Cc6sc(N7CCCCC7)nc6C(C)(C)[C@@H]5CC[C@]43C)[C@H]12	> 50	> 50	> 50	22	> 50	> 50	> 50	> 50	> 50	> 50
CC(C)[C@@H]1CC[C@]2(C(=O)O)CC[C@]3(C)[C@H](CC[C@@H]4[C@@]5(C)CC(Br)C(=O)C(C)(C)[C@@H]5CC[C@]43C)[C@@H]12 (stereo not given in full)	5.1	21.8	1	3.1	0.7	5.2	15.2	15.6	8	10
C[C@H]1[C@H](C)CC[C@]2(C(=O)O)CC[C@]3(C)C(=CC[C@@H]4[C@@]5(C)Cc6sc(N7CCCC7)nc6C(C)(C)[C@@H]5CC[C@]43C)[C@H]12	37.5	> 50	39	10.7	> 50	> 50	> 50	39	> 50	> 50
C[C@H]1[C@H](C)CC[C@]2(C(=O)O)CC[C@]3(C)C(=CC[C@@H]4[C@@]5(C)Cc6sc(N7CCN(C)CC7)nc6C(C)(C)[C@@H]5CC[C@]43C)[C@H]12	> 50	> 50	> 50	47.6	> 50	> 50	> 50	> 50	> 50	> 50
CCN(CC)c1nc2c(s1)C[C@]1(C)[C@H]3CC=C4[C@@H]5[C@@H](C)[C@H](C)CC[C@]5(C(=O)O)CC[C@@]4(C)[C@]3(C)CC[C@H]1C2(C)C	> 50	> 50	41.3	26.6	> 50	> 50	> 50	> 50	> 50	> 50
C=C(C)[C@@H]1CC[C@]2(C(=O)O)CC[C@]3(C)[C@H](CC[C@@H]4[C@@]5(C)Cc6sc(N7CCCCC7)nc6C(C)(C)[C@@H]5CC[C@]43C)[C@@H]12	> 50	> 50	> 50	9.3	35.9	> 50	> 50	> 50	50	> 50
C[C@H]1[C@H](C)CC[C@]2(C(=O)O)CC[C@]3(C)C(=CC[C@@H]4[C@@]5(C)Cc6sc(N7CCOCC7)nc6C(C)(C)[C@@H]5CC[C@]43C)[C@H]12	29.7	> 50	23.6	8.5	8.6	37.9	28.8	23.8	> 50	29.1
C=C(C)[C@@H]1CC[C@]2(C(=O)O)CC[C@]3(C)[C@H](CC[C@@H]4[C@@]5(C)Cc6sc(N7CCCC7)nc6C(C)(C)[C@@H]5CC[C@]43C)[C@@H]12	22.9	> 50	> 50	7	> 50	> 50	> 50	> 50	> 50	> 50
